How the values were obtained:
[1] = biological target: T1, rhodopsin (isorhodopsin) dimerization (Homo sapiens, UniProt P08100); experiment: rhodopsin dimerization BRET assay in HEK293 opsin-Rluc/opsin-Venus cells; format: cell-based; set-up: expressed in transfected cells; host or cells: HEK293 (human embryonic kidney 293) opsin-Rluc / opsin-Venus cell lines; settings: HEK293 opsin-Rluc/opsin-Venus cells regenerated with 9-cis-retinal; triplicates; read from Fig. 3B,E
Text: (§1) To identify small molecules that target rhodopsin dimerization, a cell-based high-throughput screening (HTS) assay was used to screen a diverse library of 50,000 compounds from Life Chemicals. The human osteosarcoma (U2OS) stable cell line was used, which expresses opsin fused with complimentary subunits of β-galactosidase (β-gal), namely, the enzyme acceptor large β-gal subunit (EA) and the enzyme donor, small subunit of β-gal (PK). Upon rhodopsin self-association in vitro, a competent β-gal was formed and chemiluminescent signal was generated in the presence of β-gal substrate (Fig. 1A). For further validation, the β-gal activity assay was used to counter-screen and rule out false positives, affecting the activity of β-gal without affecting rhodopsin (Fig. 1B) ([34]). In an orthogonal assay, rhodopsin dimerization was assessed using a bioluminescence resonance energy transfer (BRET) assay with human embryonic kidney 293 cells expressing opsin fused with Renilla luciferase and opsin fused with Venus (Fig. 1C) ([35], [36]). To form functional visual pigment, opsin-fused proteins were regenerated with 9-cis-retinal to form so-called isorhodopsin ([37]). We chose 9-cis-retinal over photoreceptor-endogenous 11-cis-retinal because of its availability and the prohibitive cost for HTS assays with the native chromophore. Rhodopsin and isorhodopsin have similar biochemical and spectral properties (see ([38])).
Identified hits from the β-gal complementation assay were subjected to the previously developed BRET assay, using human embryonic kidney 293 opsin–Renilla luciferase and opsin-Venus cell lines ([37]). Cultured cells were diluted to 2 × 10^5 cells/ml in the medium containing 10% fetal bovine serum (Thermo Fisher Scientific) and 1% penicillin-streptomycin (10,000 U/ml; Thermo Fisher Scientific), and 20 μl/well of the cell diluent was dispensed into a white ViewPlate-384 (PerkinElmer). Cells were cultured overnight at 37 °C in 5% CO2, and under a dim red light, cells were treated with 9-cis-retinal at 7.5 μM final concentration. The next day, cells were treated with the identified hit compounds from the β-gal complementation assay at 180 μM down to 2.4 nM concentrations, and 1 μM final concentration of TM5 peptide ([…]-NH2; EZBiolab) serving as the control. On the following day, the culture medium was aspirated and replaced with 90 μl/well of PBS containing pivaloyloxymethyl acetoxycoelenterazine h (Dalton Research Molecules) at 600 μM concentration followed by incubation at 20 °C for 40 min ([35]). Dual luminescence readings at 480 and 530 nm were performed using a SpectraMax L plate reader with the BRET1 filter set (Molecular Devices).

[2] = biological target: T1, rhodopsin (isorhodopsin) dimerization; experiment: rhodopsin β-gal fragment complementation assay in U2OS opsin-EA/opsin-PK cells; format: cell-based; set-up: expressed in transfected cells; settings: U2OS opsin-EA/PK cells regenerated with 9-cis-retinal; triplicates; read from Fig. 3A,D
Text: as §1
All 50,000 compounds were screened, using the β-gal complementation assay at a final concentration of 60 μM with a Z′ factor of 0.75 ± 0.01 and a signal-to-background (S/B) ratio of 123 ± 14.4 (Fig. 2A) ([39]). The activity scores were calculated according to the following equation: (RLU(compound)−RLU(positivecontrol))/(RLU(negativecontrol)−RLU(positivecontrol))×100.
The positive control comprised U2OS cells transfected with both opsin-EA and opsin-PK, mimicking dimer formation (with a 0% score value), and the negative control comprised U2OS cells transfected with opsin-EA only, mimicking disrupted dimer formation (with a 100% score value).
In this study, cultured U2OS opsin-EA and opsin-PK cells were diluted to 2 × 10^5 cells/ml in the culture medium containing 10% fetal bovine serum (Thermo Fisher Scientific) and 1% penicillin-streptomycin 10,000 U/ml (Thermo Fisher Scientific). Cell diluent of 20 μl/well was dispensed into a white ViewPlate-384 (PerkinElmer) using the EL406 plate dispenser (BioTek). As a control, we used U2OS opsin-EA–only expressing cells as a positive control for dimerization disruption generating a minimal luminescence signal, as previously described ([41]). The plates were cultured overnight at 37 °C in 5% CO2, and the next day, under a dim red light, cells were treated with 5 μl/well of 9-cis-retinal (Sigma-Aldrich) at 7.5 μM final concentration. Plates were covered with aluminum foil and cultured overnight at 37 °C in 5% CO2. Next, cells were treated with each of the 50,000 library compounds (Life Chemicals Inc) at a final concentration of 57.6 μM, using a JANUS automated workstation (PerkinElmer), followed by incubation overnight at 37 °C, covered with aluminum foil. The next day, cells were treated with Galacton-Star chemiluminescent substrate (23 μl/well; Thermo Fisher Scientific). The plates were covered with foil and incubated at 20 °C for 2 h, followed by luminescence reading with the EnSpire multimode plate reader (PerkinElmer). Measurements were evaluated with the lowest value being defined as −50% (dimer enhancers) and the highest value as 100% (dimer disrupters) in the compound dataset. All experiments were done under red-light conditions. Identified compounds were retested in triplicates ranging from 180 μM down to 2.4 nM concentrations.

T1 sequence (P08100 whole entry, the tested form may be a part): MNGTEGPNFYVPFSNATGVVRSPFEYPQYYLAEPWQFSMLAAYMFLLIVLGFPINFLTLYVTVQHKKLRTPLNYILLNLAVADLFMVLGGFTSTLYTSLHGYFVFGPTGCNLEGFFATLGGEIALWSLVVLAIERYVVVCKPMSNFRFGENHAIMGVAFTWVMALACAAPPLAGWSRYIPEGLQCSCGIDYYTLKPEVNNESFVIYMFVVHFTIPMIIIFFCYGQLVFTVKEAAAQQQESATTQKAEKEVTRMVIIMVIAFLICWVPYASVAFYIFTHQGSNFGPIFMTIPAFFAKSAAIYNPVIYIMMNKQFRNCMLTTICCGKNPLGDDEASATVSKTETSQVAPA

## O=C(CSc1nnc(NC(=O)Cc2ccc(F)cc2)s1)NO [#1]
[1]
  EC50: 2340 nM
[2]
  EC50: 2300 nM
